From ChEMBL document CHEMBL2434905, “2-Amino-6-chloro-3,4-dihydroquinazoline: A novel 5-HT3 receptor antagonist with antidepressant character” (Bioorg Med Chem Lett, 2013)

Assays:
[1] = biological target: 5-hydroxytryptamine receptor 5A (Homo sapiens, UniProt P47898); assay: Displacement of [3H]LSD from human recombinant 5-HT5A receptor expressed in CHO cells after 90 mins by scintillation counting analysis; assay type: cell-based
[2] = biological target: 5-hydroxytryptamine receptor 7 (Homo sapiens, UniProt P34969); assay: Displacement of [3H]LSD from human recombinant 5-HT7 receptor expressed in HEK cells after 90 mins by scintillation counting analysis; assay type: cell-based, HEK293
Chain of 5-hydroxytryptamine receptor 7 (P34969 whole entry): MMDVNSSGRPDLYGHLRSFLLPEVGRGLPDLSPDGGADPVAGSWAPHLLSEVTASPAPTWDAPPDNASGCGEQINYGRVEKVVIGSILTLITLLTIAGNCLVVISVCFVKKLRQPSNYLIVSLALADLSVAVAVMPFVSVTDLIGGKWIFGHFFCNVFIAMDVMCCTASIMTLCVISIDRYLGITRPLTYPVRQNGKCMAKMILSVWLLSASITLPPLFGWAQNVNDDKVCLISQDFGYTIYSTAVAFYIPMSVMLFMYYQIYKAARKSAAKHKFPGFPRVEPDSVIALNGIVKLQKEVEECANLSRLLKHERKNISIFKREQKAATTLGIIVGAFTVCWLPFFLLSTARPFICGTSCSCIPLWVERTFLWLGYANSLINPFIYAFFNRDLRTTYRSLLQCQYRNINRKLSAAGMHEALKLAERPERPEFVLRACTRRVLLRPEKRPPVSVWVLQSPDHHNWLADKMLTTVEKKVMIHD

[3] = biological target: 5-hydroxytryptamine receptor 2C (Homo sapiens, UniProt P28335); assay: Displacement of [3H]Mesulergine from human recombinant 5-HT2C receptor expressed in HEK cells after 90 mins by scintillation counting analysis; assay type: cell-based, HEK293
[4] = biological target: T1, 5-hydroxytryptamine receptor 3A (Mus musculus, UniProt P23979); assay: Antagonist activity at mouse 5-HT3A receptor expressed in Xenopus oocytes assessed as reduction of 5HT-induced current by two-electrode voltage clamp technique; assay type: cell-based, Oocyte
T1 sequence (P23979 whole entry): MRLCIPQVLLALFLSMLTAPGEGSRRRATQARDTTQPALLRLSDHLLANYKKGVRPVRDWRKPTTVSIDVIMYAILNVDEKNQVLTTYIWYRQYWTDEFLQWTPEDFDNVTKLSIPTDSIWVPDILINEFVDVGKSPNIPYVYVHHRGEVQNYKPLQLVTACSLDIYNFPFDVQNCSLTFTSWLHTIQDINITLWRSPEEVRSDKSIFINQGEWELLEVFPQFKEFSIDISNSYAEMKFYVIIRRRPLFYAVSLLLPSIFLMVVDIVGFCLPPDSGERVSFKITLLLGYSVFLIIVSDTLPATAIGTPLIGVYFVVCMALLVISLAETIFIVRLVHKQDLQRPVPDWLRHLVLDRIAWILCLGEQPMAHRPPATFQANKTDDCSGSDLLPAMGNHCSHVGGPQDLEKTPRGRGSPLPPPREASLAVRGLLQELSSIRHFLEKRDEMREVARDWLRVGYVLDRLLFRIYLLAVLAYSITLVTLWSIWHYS

Mus musculus = assay: Toxicity in ICR mouse assessed as total movement distance at 1 to 3 mg/kg, ip after 15 to 45 mins by locomotor activity assay relative to vehicle-treated control; assay type: organism-based; parameters: route intraperitoneal; settings: in vivo
Translocator protein = Translocator protein (Rattus norvegicus, UniProt P16257); assay: Displacement of [3H]PK11195 from PBR in rat brain after 90 mins by scintillation counting analysis; assay type: tissue-based
Chain of Translocator protein (P16257 whole entry, looked up): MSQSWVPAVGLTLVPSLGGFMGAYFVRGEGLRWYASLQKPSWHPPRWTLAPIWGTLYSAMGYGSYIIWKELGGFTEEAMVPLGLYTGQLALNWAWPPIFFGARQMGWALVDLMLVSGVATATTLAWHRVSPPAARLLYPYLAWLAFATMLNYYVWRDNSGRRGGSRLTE

[5] = biological target: Sodium-dependent serotonin transporter (Homo sapiens, UniProt P31645); assay: Displacement of [3H]cfitalopramfrom human recombinant serotonin transporter expressed in HEK cells after 90 mins by scintillation counting analysis; assay type: cell-based, HEK293
Mu-type opioid receptor = Mu-type opioid receptor (Homo sapiens, UniProt P35372); assay: Displacement of [3H]DAMGO from human recombinant mu opioid receptor expressed in HEK cells after 90 mins by scintillation counting analysis; assay type: cell-based, HEK293
Chain of Mu-type opioid receptor (P35372 whole entry): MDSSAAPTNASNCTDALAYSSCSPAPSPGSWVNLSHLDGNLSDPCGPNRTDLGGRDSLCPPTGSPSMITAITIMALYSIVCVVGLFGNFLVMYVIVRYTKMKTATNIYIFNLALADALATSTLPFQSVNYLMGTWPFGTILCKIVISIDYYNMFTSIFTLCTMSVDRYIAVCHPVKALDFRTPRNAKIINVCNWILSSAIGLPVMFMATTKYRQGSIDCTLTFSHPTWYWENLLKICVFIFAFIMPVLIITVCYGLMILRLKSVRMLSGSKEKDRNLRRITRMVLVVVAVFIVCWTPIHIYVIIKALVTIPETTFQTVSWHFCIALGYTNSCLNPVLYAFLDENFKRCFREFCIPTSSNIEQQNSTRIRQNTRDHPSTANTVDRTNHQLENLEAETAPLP

[6] = biological target: Muscarinic acetylcholine receptor M5 (Homo sapiens, UniProt P08912); assay: Binding affinity to human recombinant muscarinic M5 receptor expressed in CHO cells after 90 mins by radioligand displacement assay; assay type: cell-based
Chain of Muscarinic acetylcholine receptor M5 (P08912 whole entry): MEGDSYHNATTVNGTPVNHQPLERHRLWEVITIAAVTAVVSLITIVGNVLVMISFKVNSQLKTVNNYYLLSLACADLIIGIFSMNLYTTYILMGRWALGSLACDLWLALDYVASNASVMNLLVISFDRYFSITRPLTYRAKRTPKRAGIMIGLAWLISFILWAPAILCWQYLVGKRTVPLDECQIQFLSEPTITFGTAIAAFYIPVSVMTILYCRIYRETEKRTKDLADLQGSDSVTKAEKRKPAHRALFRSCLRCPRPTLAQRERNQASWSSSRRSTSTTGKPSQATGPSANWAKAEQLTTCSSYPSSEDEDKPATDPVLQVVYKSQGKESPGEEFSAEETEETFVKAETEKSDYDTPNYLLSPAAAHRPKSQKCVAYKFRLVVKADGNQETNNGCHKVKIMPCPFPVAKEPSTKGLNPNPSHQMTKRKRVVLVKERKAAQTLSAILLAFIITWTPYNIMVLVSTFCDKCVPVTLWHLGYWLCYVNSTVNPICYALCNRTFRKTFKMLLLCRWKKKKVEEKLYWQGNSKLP

[7] = biological target: Muscarinic acetylcholine receptor M4 (Homo sapiens, UniProt P08173); assay: Binding affinity to human recombinant muscarinic M4 receptor expressed in CHO cells after 90 mins by radioligand displacement assay; assay type: cell-based
Chain of Muscarinic acetylcholine receptor M4 (P08173 whole entry): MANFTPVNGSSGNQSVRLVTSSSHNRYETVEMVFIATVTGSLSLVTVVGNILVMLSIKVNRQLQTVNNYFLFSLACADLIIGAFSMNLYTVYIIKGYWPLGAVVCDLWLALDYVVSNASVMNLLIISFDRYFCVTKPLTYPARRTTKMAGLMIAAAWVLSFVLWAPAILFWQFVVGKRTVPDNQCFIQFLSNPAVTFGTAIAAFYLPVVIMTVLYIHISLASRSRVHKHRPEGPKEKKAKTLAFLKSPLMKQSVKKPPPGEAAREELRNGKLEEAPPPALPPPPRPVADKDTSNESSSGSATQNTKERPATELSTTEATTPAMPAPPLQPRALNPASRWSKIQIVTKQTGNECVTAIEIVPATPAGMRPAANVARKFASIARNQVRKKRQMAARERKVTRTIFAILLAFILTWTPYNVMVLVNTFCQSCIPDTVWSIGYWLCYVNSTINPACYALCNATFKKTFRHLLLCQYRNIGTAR

[8] = biological target: Kappa-type opioid receptor (Homo sapiens, UniProt P41145); assay: Displacement of [3H]U69593 from kappa opioid receptor (unknown origin) expressed in HEK cells after 90 mins by scintillation counting analysis; assay type: cell-based, HEK293
Histamine H3 receptor = Histamine H3 receptor (Homo sapiens, UniProt Q9Y5N1); assay: Displacement of [3H]-alpha-methylhistamine from human recombinant histamine H3 receptor expressed in HEK cells after 90 mins by scintillation counting analysis; assay type: cell-based, HEK293
[9] = Displacement of [3H]Muscimol from GABAA in rat brain after 90 mins by scintillation counting analysis; assay type: tissue-based
[10] = biological target: Delta-type opioid receptor (Homo sapiens, UniProt P41143); assay: Displacement of [3H]DADLE from human recombinant delta opioid receptor expressed in HEK cells after 90 mins by scintillation counting analysis; assay type: cell-based, HEK293
D(1B) dopamine receptor = D(1B) dopamine receptor (Homo sapiens, UniProt P21918); assay: Displacement of [3H]SCH23390 from human recombinant dopamine D5 receptor expressed in HEK cells after 90 mins by scintillation counting analysis; assay type: cell-based, HEK293
[11] = Displacement of [3H]Flunitrazepam from BZP receptor in rat brain after 90 mins by scintillation counting analysis; assay type: tissue-based
[12] = biological target: Beta-3 adrenergic receptor (Homo sapiens, UniProt P13945); assay: Binding affinity to human recombinant beta3-adrenoceptor expressed in HEK cells after 90 mins by radioligand displacement assay; assay type: cell-based, HEK293
[13] = biological target: Beta-2 adrenergic receptor (Homo sapiens, UniProt P07550); assay: Displacement of [3H]CGP12177 from human recombinant beta2-adrenoceptor expressed in HEK cells after 90 mins by scintillation counting analysis; assay type: cell-based, HEK293
Chain of Beta-2 adrenergic receptor (P07550 whole entry): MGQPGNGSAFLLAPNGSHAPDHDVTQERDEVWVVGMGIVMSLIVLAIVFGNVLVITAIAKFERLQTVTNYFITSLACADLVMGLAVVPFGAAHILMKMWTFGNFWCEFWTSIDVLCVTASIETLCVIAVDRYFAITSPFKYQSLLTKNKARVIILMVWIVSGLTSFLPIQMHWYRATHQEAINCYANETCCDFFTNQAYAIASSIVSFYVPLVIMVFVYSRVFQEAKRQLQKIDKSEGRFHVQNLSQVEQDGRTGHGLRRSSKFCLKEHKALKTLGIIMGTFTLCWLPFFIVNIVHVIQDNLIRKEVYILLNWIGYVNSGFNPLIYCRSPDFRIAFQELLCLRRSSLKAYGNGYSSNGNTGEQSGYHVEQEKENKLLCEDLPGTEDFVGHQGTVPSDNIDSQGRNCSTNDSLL

[14] = biological target: Alpha-1A adrenergic receptor (Homo sapiens, UniProt P35348); assay: Displacement of [3H]Prazosin from human recombinant alpha1A-adrenoceptor after 90 mins by scintillation counting analysis
[15] = biological target: Neuronal acetylcholine receptor; alpha4/beta2 (Homo sapiens, UniProt P17787+P43681); assay: Displacement of [3H]-epibatidine from human alpha4beta2 nAChR transfected in HEK293 cells by scintillation counting analysis; assay type: cell-based
Chain of Neuronal acetylcholine receptor; alpha4/beta2 (P17787 whole entry): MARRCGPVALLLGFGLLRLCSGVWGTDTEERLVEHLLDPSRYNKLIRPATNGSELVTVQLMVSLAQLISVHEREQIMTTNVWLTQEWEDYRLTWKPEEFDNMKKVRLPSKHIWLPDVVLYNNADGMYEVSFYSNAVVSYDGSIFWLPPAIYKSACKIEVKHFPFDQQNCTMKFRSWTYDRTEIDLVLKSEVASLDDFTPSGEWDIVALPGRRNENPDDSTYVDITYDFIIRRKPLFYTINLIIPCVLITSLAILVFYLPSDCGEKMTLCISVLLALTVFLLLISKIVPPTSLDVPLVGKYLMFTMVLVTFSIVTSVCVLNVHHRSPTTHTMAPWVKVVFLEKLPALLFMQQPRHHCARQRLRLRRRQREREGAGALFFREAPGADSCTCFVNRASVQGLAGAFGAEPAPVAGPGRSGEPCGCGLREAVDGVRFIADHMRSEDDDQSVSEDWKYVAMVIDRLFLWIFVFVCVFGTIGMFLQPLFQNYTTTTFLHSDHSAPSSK
Chain of Neuronal acetylcholine receptor; alpha4/beta2 (P43681 whole entry): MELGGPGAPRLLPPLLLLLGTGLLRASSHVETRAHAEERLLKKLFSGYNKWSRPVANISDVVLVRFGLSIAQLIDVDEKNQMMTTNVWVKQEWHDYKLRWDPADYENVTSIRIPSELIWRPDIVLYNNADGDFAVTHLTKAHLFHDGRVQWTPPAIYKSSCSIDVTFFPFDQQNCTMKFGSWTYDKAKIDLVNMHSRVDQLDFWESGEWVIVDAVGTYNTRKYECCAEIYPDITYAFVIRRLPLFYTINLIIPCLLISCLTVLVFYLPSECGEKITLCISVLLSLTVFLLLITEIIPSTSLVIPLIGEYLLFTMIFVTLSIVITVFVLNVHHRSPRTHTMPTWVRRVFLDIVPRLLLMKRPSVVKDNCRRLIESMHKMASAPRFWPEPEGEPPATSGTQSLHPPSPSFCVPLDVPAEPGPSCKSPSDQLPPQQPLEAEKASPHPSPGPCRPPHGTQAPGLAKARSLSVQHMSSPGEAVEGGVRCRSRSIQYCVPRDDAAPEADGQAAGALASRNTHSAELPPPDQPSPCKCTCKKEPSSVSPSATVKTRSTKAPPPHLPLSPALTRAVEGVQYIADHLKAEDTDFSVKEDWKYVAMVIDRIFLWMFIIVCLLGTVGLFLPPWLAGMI

[16] = biological target: Nicotinic acetylcholine receptor alpha2/beta4 (Homo sapiens, UniProt P02708+P30926); assay: Displacement of [3H]-epibatidine from human alpha2beta4 nAChR transfected in HEK293 cells by scintillation counting analysis; assay type: cell-based
[17] = biological target: Neuronal acetylcholine receptor; alpha3/beta2 (Homo sapiens, UniProt P17787+P32297); assay: Displacement of [3H]-epibatidine from human alpha3beta2 nAChR transfected in HEK293 cells by scintillation counting analysis; assay type: cell-based
Chain of Neuronal acetylcholine receptor; alpha3/beta2 (P17787 whole entry): as the sequence (P17787 whole entry) above
Chain of Neuronal acetylcholine receptor; alpha3/beta2 (P32297 whole entry): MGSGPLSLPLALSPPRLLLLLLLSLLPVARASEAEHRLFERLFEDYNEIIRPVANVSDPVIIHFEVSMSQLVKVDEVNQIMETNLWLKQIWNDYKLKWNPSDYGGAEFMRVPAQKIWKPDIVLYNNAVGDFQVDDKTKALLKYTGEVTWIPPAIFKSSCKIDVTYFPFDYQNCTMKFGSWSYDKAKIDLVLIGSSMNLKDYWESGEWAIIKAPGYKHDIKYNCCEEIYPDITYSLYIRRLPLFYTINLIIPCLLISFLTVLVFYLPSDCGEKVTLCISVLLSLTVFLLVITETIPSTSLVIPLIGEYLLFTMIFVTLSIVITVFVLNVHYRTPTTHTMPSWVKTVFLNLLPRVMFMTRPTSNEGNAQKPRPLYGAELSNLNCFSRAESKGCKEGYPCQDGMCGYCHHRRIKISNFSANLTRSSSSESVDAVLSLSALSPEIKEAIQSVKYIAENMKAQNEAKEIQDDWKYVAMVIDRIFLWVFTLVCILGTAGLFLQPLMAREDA

[18] = biological target: 5-hydroxytryptamine receptor 4 (Homo sapiens, UniProt Q13639); assay: Displacement of [[3H]GR113808 from human recombinant 5-HT4 receptor after 90 mins by scintillation counting analysis
[19] = biological target: 5-hydroxytryptamine receptor 6 (Homo sapiens, UniProt P50406); assay: Displacement of [3H]LSD from human recombinant 5-HT6 receptor expressed in HEK cells after 90 mins by scintillation counting analysis; assay type: cell-based, HEK293
[20] = biological target: 5-hydroxytryptamine receptor 1E (Homo sapiens, UniProt P28566); assay: Displacement of [3H]5-HT from human recombinant 5-HT1E receptor expressed in HEK cells after 90 mins by scintillation counting analysis; assay type: cell-based, HEK293
[21] = biological target: 5-hydroxytryptamine receptor 1A (Homo sapiens, UniProt P08908); assay: Displacement of [3H]Way100635 from human recombinant 5-HT1A receptor expressed in CHO cells after 90 mins by scintillation counting analysis; assay type: cell-based
Chain of 5-hydroxytryptamine receptor 1A (P08908 whole entry): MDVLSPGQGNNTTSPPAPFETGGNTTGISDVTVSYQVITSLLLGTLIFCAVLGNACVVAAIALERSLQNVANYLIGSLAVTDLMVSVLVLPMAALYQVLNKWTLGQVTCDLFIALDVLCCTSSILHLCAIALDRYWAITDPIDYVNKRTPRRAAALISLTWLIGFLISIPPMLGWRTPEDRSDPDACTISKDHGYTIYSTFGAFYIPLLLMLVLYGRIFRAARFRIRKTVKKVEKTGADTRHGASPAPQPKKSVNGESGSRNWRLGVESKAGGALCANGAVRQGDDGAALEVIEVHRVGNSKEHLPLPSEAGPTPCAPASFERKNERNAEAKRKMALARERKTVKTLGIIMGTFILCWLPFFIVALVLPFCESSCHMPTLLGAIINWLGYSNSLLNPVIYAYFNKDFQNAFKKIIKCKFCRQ

[22] = biological target: Sigma non-opioid intracellular receptor 1 (Cavia porcellus, UniProt Q60492); assay: Displacement of [3H]Pentazocine from guinea pig sigma1 receptor after 90 mins by scintillation counting analysis
[23] = biological target: Alpha-2B adrenergic receptor (Homo sapiens, UniProt P18089); assay: Displacement of [3H]Rauwolscine from human recombinant alpha2B-adrenoceptor expressed in HEK cells after 90 mins by scintillation counting analysis; assay type: cell-based, HEK293
[24] = biological target: Alpha-2A adrenergic receptor (Homo sapiens, UniProt P08913); assay: Displacement of [3H]Rauwolscine from human recombinant alpha2A-adrenoceptor expressed in MDCK cells after 90 mins by scintillation counting analysis; assay type: cell-based

Chain of 5-hydroxytryptamine receptor 5A (P47898 whole entry): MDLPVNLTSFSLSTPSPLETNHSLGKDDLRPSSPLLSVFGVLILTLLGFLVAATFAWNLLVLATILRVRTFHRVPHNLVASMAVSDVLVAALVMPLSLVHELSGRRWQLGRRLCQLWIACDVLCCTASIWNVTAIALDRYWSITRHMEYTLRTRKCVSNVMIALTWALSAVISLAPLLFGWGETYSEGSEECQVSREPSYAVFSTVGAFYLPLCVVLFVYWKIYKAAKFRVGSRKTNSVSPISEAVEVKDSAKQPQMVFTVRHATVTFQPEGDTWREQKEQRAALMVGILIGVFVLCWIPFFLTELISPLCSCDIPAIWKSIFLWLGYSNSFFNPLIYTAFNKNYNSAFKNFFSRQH

In the case of `Cl.NC1=Nc2ccc(Cl)cc2CN1`, the Ki [1] is reported as 0.466 µM, the Ki [2] is reported as 1.16 µM and the Ki [3] is reported as 0.644 µM. For the same compound, the IC50 [4] was 0.26 µM, the Activity (Mus musculus) was “Non-toxic” and the Ki (Translocator protein) was over 10 µM. It also gave a Ki [5] of over 10 µM, a Ki (Mu-type opioid receptor) of over 10 µM and a Ki [6] of over 10 µM. For the same compound, the Ki [7] was over 10 µM, the Ki [8] was over 10 µM and the Ki (Histamine H3 receptor) was over 10 µM. The Ki [9] was over 10 µM, the Ki [10] was over 10 µM and the Ki (D(1B) dopamine receptor) was over 10 µM. For the same compound, the Ki [11] was over 10 µM, the Ki [12] was over 10 µM and the Ki [13] was over 10 µM. For the same compound, the Ki [14] was over 10 µM, the Ki [15] was over 10 µM and the Ki [16] was over 10 µM. The Ki [17] was over 10 µM, the Ki [18] was over 10 µM and the Ki [19] was over 10 µM. The Ki [20] was over 10 µM, the Ki [21] was over 10 µM and the Ki [22] was 6.15 µM. The Ki [23] was 0.243 µM and the Ki [24] was 0.283 µM.
